One compound from paper PMC3335078, “Length and Amino Acid Sequence of Peptides Substituted for the 5-HT3A Receptor M3M4 Loop May Affect Channel Expression and Desensitization” (PLoS ONE, 2012) can be followed below.

For experiment [1], the target named is T1, 5-HT3A-A3 (M3M4 loop replaced by three alanines) (Mus musculus, UniProt P23979, DELINS338-452AAA).
T1 construct: expressed in transfected cells; host or cells: Xenopus laevis oocytes injected with mRNA
T1 sequence (P23979 with tags, fused parts or gaps isoform P23979-2 DELINS338-452AAA limits assumed): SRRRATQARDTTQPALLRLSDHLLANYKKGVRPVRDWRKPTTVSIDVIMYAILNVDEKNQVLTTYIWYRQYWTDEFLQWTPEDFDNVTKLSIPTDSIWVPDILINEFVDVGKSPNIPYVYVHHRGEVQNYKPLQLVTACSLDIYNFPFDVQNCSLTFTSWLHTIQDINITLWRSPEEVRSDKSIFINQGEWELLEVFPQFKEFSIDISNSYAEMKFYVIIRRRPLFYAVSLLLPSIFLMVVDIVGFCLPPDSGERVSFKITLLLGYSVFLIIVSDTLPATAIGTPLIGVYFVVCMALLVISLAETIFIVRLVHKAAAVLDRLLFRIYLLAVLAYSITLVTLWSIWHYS
Put plainly: Two-electrode voltage clamp, oocytes expressing 5-HT3A-A3. It is filed as cell-based. An excerpt: (§1) The mouse 5-HT3A cDNA with an N-terminal V5 epitope tag was cloned into the pXOON vector as previously described, and is referred to in this paper as “wild-type” (WT). The starting construct for all of the M3M4 loop replacement constructs used in this work was the 5-HT3A-ΔM3M4 construct formed by splicing the cytoplasmic end of M3 (M3-LVHK/QDLQRP…) to the cytoplasmic end of M4 (…WLRVGY/VLDRLL-M4). The splice was made at the site of the “/” to yield the sequence M3-LVHK/VLDRLL-M4 [34]. This removed 115 residues predicted to form the M3M4 loop.
(§2) The construction of the 5-HT3A-glvM3M4 chimera with the 5-HT3A M3M4 loop replaced by the GLIC heptapeptide M3M4 loop (SQPARAA) was described previously. Point mutations, alanine and Gly-Ser-Ala insertions into the 5-HT3A-ΔM3M4 construct were generated with the Quikchange site directed mutagenesis procedure (Stratagene, La Jolla, CA). The entire coding region of all mutant constructs was verified by DNA sequencing (Albert Einstein College of Medicine DNA Sequencing Facility). The pXOON plasmid was linearized using NheI and capped mRNA prepared with T7 RNA polymerase (mMessage mMachine, Ambion, Austin, TX).
(§3) Use of Xenopus laevis in this study was carried out in strict accordance with the recommendations in the Guide for the Care and Use of Laboratory Animals of the National Institutes of Health. The protocol was approved by the Albert Einstein College of Medicine Animal Care and Use Committee (Protocol Number: 20081201). All surgery was performed under tricaine anesthesia, and all efforts were made to minimize suffering. Oocyctes were harvested from Xenopus (Nasco Science, Fort Atkinson, WI) anesthetized with 0.15% tricaine. Oocyctes were defolliculated by incubation in 2 mg ml^−1 Type 1A collagenase (Sigma-Aldrich, St. Louis, MO) in OR2 (85 mM NaCl, 2 mM KCl, 1 mM MgCl2, and 5 mM HEPES; pH adjusted to 7.5 with NaOH) for a 60 or 75 min. Oocytes were washed in OR2 and stored at 16°C in SOS medium: 100 mM NaCl, 2 mM KCl, 1 mM MgCl2, 1.8 mM CaCl2 5 mM HEPES, pH 7.5 with 100 IU ml^−1 penicillin, 100 µg ml^−1 streptomycin, and 250 ng ml^−1 amphotericin B (Invitrogen, Carlsbad, CA) and 5% horse serum (Sigma-Aldrich). 24 hrs following isolation, oocyctes were injected with 23 nl (2.3 ng) of mRNA and were kept in SOS media for 2–5 d at 16°C.
Currents were recorded under two-electrode voltage clamp from oocytes 2–5 d post-injection as described previously. […] The perfusion chamber volume was 200 µl. […]
(§4) Desensitization rates were determined by fitting a single exponential decay function to the current data with Prism 4 software (GraphPad Software). Significant differences compared with wild-type were determined by a one-way ANOVA (p<0.05) using Dunnett's multiple comparison post-hoc test (p<0.05). […]

Experiment [2] deals with T2, 5-HT3A M3M4 loop SQPAARA construct (Mus musculus, UniProt P23979).
T2 construct: expressed in transfected cells; host or cells: Xenopus laevis oocytes injected with mRNA
Put plainly: Two-electrode voltage clamp, oocytes expressing SQPAARA loop construct. The experiment is classed as cell-based. The conditions noted are these: 10 µM 5-HT, Xenopus oocytes.
Excerpt: as §1
The construction of the 5-HT3A-glvM3M4 chimera with the 5-HT3A M3M4 loop replaced by the GLIC heptapeptide M3M4 loop (SQPARAA) was described previously. Point mutations, alanine and Gly-Ser-Ala insertions into the 5-HT3A-ΔM3M4 construct were generated with the Quikchange site directed mutagenesis procedure (Stratagene, La Jolla, CA). […]
Currents were recorded under two-electrode voltage clamp from oocytes 2–5 d post-injection as described previously. […]
as §4

In experiment [3] the target is T3, 5-HT3A-A6 (M3M4 loop replaced by six alanines) (Mus musculus, UniProt P23979).
T3 sequence (P23979 with tags, fused parts or gaps isoform P23979-2 limits assumed): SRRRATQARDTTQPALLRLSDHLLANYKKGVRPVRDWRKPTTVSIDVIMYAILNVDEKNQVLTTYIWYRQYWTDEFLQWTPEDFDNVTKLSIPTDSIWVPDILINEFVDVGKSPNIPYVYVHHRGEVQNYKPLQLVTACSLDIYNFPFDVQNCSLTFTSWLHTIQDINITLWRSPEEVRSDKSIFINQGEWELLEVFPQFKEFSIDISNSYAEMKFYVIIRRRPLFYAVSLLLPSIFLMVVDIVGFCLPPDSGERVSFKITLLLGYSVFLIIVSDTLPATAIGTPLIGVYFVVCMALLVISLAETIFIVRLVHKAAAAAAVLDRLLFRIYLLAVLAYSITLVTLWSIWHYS
Excerpt: as §1, §2, §3
Currents were recorded under two-electrode voltage clamp from oocytes 2–5 d post-injection as described previously. […] The perfusion chamber volume was 200 µl. A 3 M KCl/agar bridge connected the ground electrode to the bath. The holding potential was maintained at −60 mV. […] Salts were purchased from Fisher Scientific (Hampton, NH) or Sigma-Aldrich.
Desensitization rates were determined by fitting a single exponential decay function to the current data with Prism 4 software (GraphPad Software). Significant differences compared with wild-type were determined by a one-way ANOVA (p<0.05) using Dunnett's multiple comparison post-hoc test (p<0.05). […]

In experiment [4] the target is T4, 5-HT3A receptor wild-type (WT, V5-tagged) (Mus musculus, UniProt P23979).
T4 construct: unrelated to the structural/functional states accessible to a normal full-length 5-HT3A receptor; expressed in transfected cells; host or cells: Xenopus laevis oocytes injected with mRNA
T4 sequence (P23979 24-483 isoform P23979-2 limits assumed): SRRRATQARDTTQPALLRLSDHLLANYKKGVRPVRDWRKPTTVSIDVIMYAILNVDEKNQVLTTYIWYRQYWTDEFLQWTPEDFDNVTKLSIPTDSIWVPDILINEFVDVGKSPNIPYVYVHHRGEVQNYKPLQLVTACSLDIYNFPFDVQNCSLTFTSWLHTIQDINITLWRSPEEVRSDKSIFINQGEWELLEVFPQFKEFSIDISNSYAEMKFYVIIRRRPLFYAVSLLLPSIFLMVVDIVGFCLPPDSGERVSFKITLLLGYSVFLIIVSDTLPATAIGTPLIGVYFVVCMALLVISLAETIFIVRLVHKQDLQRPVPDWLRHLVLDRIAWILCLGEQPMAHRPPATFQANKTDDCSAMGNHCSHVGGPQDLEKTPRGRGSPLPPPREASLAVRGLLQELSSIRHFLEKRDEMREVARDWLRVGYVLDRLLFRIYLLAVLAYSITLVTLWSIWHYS
Nature of the experiment: Two-electrode voltage clamp, 5-HT-induced currents in oocytes expressing wild-type 5-HT3A. It is filed as cell-based. The conditions noted are these: wildtype.
Description: The mouse 5-HT3A cDNA with an N-terminal V5 epitope tag was cloned into the pXOON vector as previously described [34], and is referred to in this paper as “wild-type” (WT).
Currents were recorded under two-electrode voltage clamp from oocytes 2–5 d post-injection as described previously [37]. […] The perfusion chamber volume was 200 µl. A 3 M KCl/agar bridge connected the ground electrode to the bath. The holding potential was maintained at −60 mV. […] Salts were purchased from Fisher Scientific (Hampton, NH) or Sigma-Aldrich.
Desensitization rates were determined by fitting a single exponential decay function to the current data with Prism 4 software (GraphPad Software). Significant differences compared with wild-type were determined by a one-way ANOVA (p<0.05) using Dunnett's multiple comparison post-hoc test (p<0.05). […] One way ANOVA (P<0.05) with post hoc Dunnett's Multiple Comparison test was performed using Prism 5.0 (Graphpad software.)

[5] abbreviates: 10 µM 5-HT, Xenopus oocytes, -60 mV.

T2 sequence (P23979 with tags, fused parts or gaps): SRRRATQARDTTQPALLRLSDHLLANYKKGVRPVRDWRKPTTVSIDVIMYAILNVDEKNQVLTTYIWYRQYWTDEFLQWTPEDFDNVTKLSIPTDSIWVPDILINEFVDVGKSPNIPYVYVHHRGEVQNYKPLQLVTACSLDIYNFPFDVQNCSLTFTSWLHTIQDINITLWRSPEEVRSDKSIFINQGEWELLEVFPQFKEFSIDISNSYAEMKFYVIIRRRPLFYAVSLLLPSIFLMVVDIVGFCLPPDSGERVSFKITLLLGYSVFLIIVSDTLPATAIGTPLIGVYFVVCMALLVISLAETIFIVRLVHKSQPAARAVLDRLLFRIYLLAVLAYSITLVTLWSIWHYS

Turning to `NCCc1c[nH]c2ccc(O)cc12` [5-HT, 5-hydroxytryptamine], the “nH (Hill coefficient)” value in experiment [1] worked out at 2.6±0.4. The results for the “10–90% Activation rise time” value in experiment [1] (10 µM 5-HT), in experiment [3] (10 µM 5-HT) and in experiment [4] (10 µM 5-HT) were 621 ± 47 ms, 1017 ± 23 ms and 587 ± 51 ms, respectively. Moreover, the “Imax (peak current)” value came out at 6300±800 nA in experiment [1] (setting [5]); 6400±1100 nA in experiment [3] (setting [5]); 7300±700 nA in experiment [4] (10 µM 5-HT (saturating), Xenopus oocytes, -60 mV). The “Desensitization time constant τ” value was found to be 8 ± 2 s in experiment [1] (prolonged 10 µM 5-HT, may be limited by solution exchange); 77 ± 6 s in experiment [3] (prolonged 10 µM 5-HT); 77 ± 18 s in experiment [4] (prolonged 10 µM 5-HT, Ca-free buffer). In experiment [2], this compound came in with a Peak current of 320±25 nA.
